Test results: US20240000075A1, “FUNGICIDAL ARYL AMIDINES” (CORTEVA AGRISCIENCE LLC, priority 2020, published 2024)
Where two headings read alike, the source gives them in different places.

Experiments:
[1] = tested on: Puccinia triticina; test: Wheat brown rust, whole-plant fungicidal activity (PUCCRT); assay type: in vivo, Puccinia triticina on wheat plants (variety 'Yuma'); details: 24 h, 1DP (1 day protectant), read-out: % Disease Control Rating PUCCRT
Outline: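 Wheat 'Yuma' seedlings at first-leaf stage sprayed to run-off with compound from acetone stock diluted in nine volumes water containing 110 ppm Triton X-100, then inoculated with Puccinia triticina spores. Held overnight in dark dew room at 100% RH, then greenhouse for disease development.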

[2] = tested on: Zymoseptoria tritici; test: Septoria leaf blotch of wheat, whole-plant fungicidal activity (SEPTTR); assay type: in vivo, Zymoseptoria tritici on wheat plants (variety 'Yuma'); details: read-out: % Disease Control Rating SEPTTR
Outline: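 Compounds in acetone, diluted with nine volumes of water containing 110 ppm Triton X-100, were sprayed to run-off on 'Yuma' wheat seedlings at full first-leaf emergence. Spore inoculation was 3 days before (3DC, curative) or 1 day after (1DP, protectant) treatment, then 3 days at 100% RH and greenhouse. First-leaf disease severity (0–100%) was scored relative to untreated plants as percent control.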

[3] = tested on: Rhynchosporium commune; test: Leaf blotch of barley, whole-plant fungicidal activity (RHYNSE); assay type: in vivo; details: 24 h, 1DP (1 day protectant), read-out: % Disease Control Rating RHYNSE
Outline: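 Barley cv. 'Harrington' at full first-leaf emergence (7-10 seedlings per pot) was sprayed to run-off with compound in acetone plus nine volumes of water containing 110 ppm Triton X-100, air-dried, then inoculated with spore suspension. Plants spent two days in a dark dew room at 100% RH, then moved to greenhouse for disease development.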

[4] = tested on: Phakopsora pachyrhizi; test: Asian soybean rust, whole-plant fungicidal activity (PHAKPA); assay type: in vivo; details: read-out: % Disease Control Rating PHAKPA
Outline: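 Ten-day-old 'Williams 82' soybean seedlings sprayed to run-off with compound in acetone/water (1:9, 0.011% Tween-20), air-dried, then inoculated; 24 h dark dew room at 100% RH, then growth room. Disease severity scored 0–100% on sprayed leaves; percent control relative to untreated plants.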

| melting point [°C] | Compound | pest or weed control at 200 ppm [1] [%] | pest or weed control at 200 ppm ([2]; 24 h, 1DP (1 day protectant)) [%] | pest or weed control at 200 ppm ([2]; 72 h, 3DC (3 day curative)) [%] | pest or weed control at 200 ppm [3] [%] | pest or weed control at 200 ppm ([4]; 24 h, 1DP (1 day protectant)) [%] | pest or weed control at 200 ppm ([4]; 72 h, 3DC (3 day curative)) [%] |
| --- | --- | --- | --- | --- | --- | --- | --- |
| 101 to 105 | CCN(C)/C=N/c1cc(C)c(C(=O)Cc2ccccc2C)cc1C [Compound 1] | > 85 | < 20 | 20 to 50 | > 85 | > 85 | > 85 |
| 43 to 46 | CCN(C)/C=N/c1cc(C)c(C(=O)Cc2ccccc2)cc1C [Compound 2] | > 85 | 20 to 50 | < 20 | > 85 | > 85 | > 85 |
| 69 to 71 | CCN(C)/C=N/c1cc(C)c(C(=O)CC2CCCCC2)cc1C [Compound 3] | > 85 | > 85 | 20 to 50 | > 85 | > 85 | > 85 |
| 73 to 76 | CCN(C)/C=N/c1cc(C)c(C(=O)Cc2cccc(C(F)(F)F)c2)cc1C [Compound 5] | > 85 | 20 to 50 | < 20 | > 85 | > 85 | > 85 |
| 102 to 105 | CCN(C)/C=N/c1cc(C)c(C(=O)Cc2ccc(C)cc2F)cc1C [Compound 7] | > 85 | 20 to 50 | < 20 | > 85 | > 85 | > 85 |
| 70 to 74 | CCN(C)/C=N/c1cc(C)c(C(=O)Cc2ccc(OC(F)(F)F)cc2)cc1C [Compound 8] | > 85 | 50 to 85 | 20 to 50 | > 85 | > 85 | > 85 |
| 53 to 57 | CCN(C)/C=N/c1ccc(C(=O)Cc2cccc(C(F)(F)F)c2)c(C)c1C [Compound 10] | < 20 | < 20 | < 20 | 20 to 50 | > 85 | > 85 |
| 52 to 56 | CCN(C)/C=N/c1ccc(C(=O)CCC(F)(F)F)c(C)c1C [Compound 13] | < 20 | < 20 | < 20 | < 20 | 50 to 85 | > 85 |
| 49 to 52 | CCN(C)/C=N/c1ccc(C(=O)CCCC(F)(F)F)c(C)c1C [Compound 14] | > 85 | < 20 | < 20 | < 20 | > 85 | > 85 |
| 68 to 72 | CCN(C)/C=N/c1ccc(C(=O)CC2CCCCC2)c(C)c1C [Compound 15] | < 20 | < 20 | < 20 | 50 to 85 | > 85 | > 85 |
| – | Cc1cc(C(=O)CC2CCCC2)c(C)cc1/N=C/N1CCCCC1 [Compound 80] | > 85 | 50 to 85 | < 20 | > 85 | > 85 | > 85 |
| – | Cc1cc(C(=O)Cc2c(F)cc(F)cc2F)c(C)cc1/N=C/N1CCCCC1 [Compound 81] | > 85 | < 20 | < 20 | < 20 | 50 to 85 | – |
| – | Cc1cc(C(=O)CC2CCCC2)c(C)cc1/N=C/N(C)C(C)C [Compound 82] | > 85 | > 85 | < 20 | > 85 | > 85 | > 85 |
| – | CCN(C)/C=N/c1cc(C)c(C(=O)Cc2ccccc2OC(F)F)cc1C [Compound 83] | > 85 | < 20 | < 20 | > 85 | > 85 | > 85 |
| – | CCN(C)/C=N/c1cc(C)c(C(=O)Cc2cccc(OC(F)F)c2)cc1C [Compound 84] | > 85 | < 20 | < 20 | > 85 | > 85 | > 85 |
| – | CCN(C)/C=N/c1cc(C)c(C(=O)Cc2ccc(OC(F)F)cc2)cc1C [Compound 85] | > 85 | > 85 | 20 to 50 | > 85 | > 85 | > 85 |
| – | CCN(C)/C(C)=N/c1cc(C)c(C(=O)Cc2c(F)cc(F)cc2F)cc1C [Compound 86] | > 85 | < 20 | < 20 | < 20 | > 85 | > 85 |
| – | CC/C(=N\c1cc(C)c(C(=O)Cc2c(F)cc(F)cc2F)cc1C)N(C)CC [Compound 87] | > 85 | < 20 | < 20 | < 20 | 50 to 85 | 20 to 50 |
| – | Cc1cc(C(=O)Cc2c(F)cc(F)cc2F)c(C)cc1/N=C1\CCCCN1C [Compound 88] | 50 to 85 | < 20 | < 20 | < 20 | 50 to 85 | > 85 |
| – | CCN(C)/C=N/c1cc(C)c(C(=O)Cc2c(F)cc(F)cc2F)cc1OC [Compound 89] | > 85 | < 20 | < 20 | 20 to 50 | 50 to 85 | 20 to 50 |
| – | CCN(C)/C(C)=N/c1cc(C)c(C(=O)CC2CCCC2)cc1C [Compound 90] | > 85 | < 20 | < 20 | 20 to 50 | > 85 | > 85 |
| – | CC/C(=N\c1cc(C)c(C(=O)CC2CCCC2)cc1C)N(C)CC [Compound 91] | > 85 | < 20 | < 20 | < 20 | > 85 | > 85 |
| – | Cc1cc(C(=O)CC2CCCC2)c(C)cc1/N=C1\CCCCN1C [Compound 92] | > 85 | < 20 | < 20 | 20 to 50 | 50 to 85 | 50 to 85 |
| – | CCN(C)/C(S)=N/c1cc(C)c(C(=O)Cc2c(F)cc(F)cc2F)cc1C [Compound 93] | > 85 | 50 to 85 | < 20 | > 85 | > 85 | > 85 |
| – | CCN(C)/C(S)=N/c1cc(C)c(C(=O)CC2CCCC2)cc1C [Compound 94] | > 85 | > 85 | < 20 | > 85 | > 85 | > 85 |
